Read-outs that look alike come from different tables or passages of the source.
How the values were obtained:
hepatocytes [1] = test system: hepatocytes; parameters: method as in PMID 32932946; details: rat hepatocytes; cited from earlier work
[2] = Pharmacokinetics after intravenous injection in mice; assay type: in vivo, ICR mice; details: for AUC(0-inf) / AUC(0-t) / half-life / MRT / clearance / Vd: ICR, mouse; for AUC(0-inf) / AUC(0-t) / half-life / MRT / clearance / Vd / Co: plasma; for AUC∞/D / Co/D: dose normalized
Method: Fifty-four ICR mice were randomly divided into nine groups (n = 6 per group; Table 1) and intravenously administered an enavogliflozin solution at doses of 0.3, 1, and 3 mg/kg. The drug was dissolved in a mixture of 10% DMSO and 90% saline and injected via the tail vein. Before blood sampling, mice were anesthetized for 5 min using 2% isoflurane in a vaporizer with an oxygen flow of 0.8 L/min. Blood sampling used a sparse sampling method via the right or left retro-orbital vein using heparinized capillary tubes (Heinz Herenz, Hamburg, Germany). Final blood was collected from the abdominal artery using a heparin-treated 1 mL syringe (Jung Lim Co. Ltd., Choong-Buk, Korea) under isoflurane anesthesia (Table 1). Blood samples were collected at 0, 0.083, 0.25, 0.5, 1, 2, 4, 8, and 24 h and centrifuged at 12,000× g for 1 min to separate plasma. An aliquot (30 µL) of each plasma sample was stored at −80 °C until enavogliflozin analysis.
(§1) Concentrations of enavogliflozin in plasma and tissue homogenate samples were analyzed using an Agilent 6430 triple quadrupole liquid chromatography-mass spectrometry (LC–MS/MS) system (Agilent, Wilmington, DE, USA) following a previously published method.
(§2) The data were expressed as the means ± standard deviation for the groups. Pharmacokinetic parameters, such as the area under the plasma concentration–time curve during the period of observation (AUClast), AUC to infinite time (AUC∞), clearance (CL), and volume of distribution at steady-state (Vd,ss), the terminal half-life (t1/2), and mean residence time (MRT) were calculated using non-compartment analysis with WinNonlin software (version 5.1; Pharsights, Cary, NC, USA). The AUC ratios were calculated by dividing the AUClast of enavogliflozin in the tissue samples by the plasma AUClast values of enavogliflozin [15].

hepatocytes [3] = test system: hepatocytes; parameters: method as in PMID 32932946; details: monkey hepatocytes; cited from earlier work
hepatocytes [4] = test system: hepatocytes; parameters: method as in PMID 32932946; details: human cells (hepatocytes); cited from earlier work
hepatocytes [5] = test system: hepatocytes; parameters: method as in PMID 32932946; details: dog hepatocytes; cited from earlier work
[6] = Pharmacokinetics after oral administration in mice; assay type: in vivo, ICR mice; details: for AUC(0-inf) / AUC(0-t) / Cmax / half-life / MRT / Tmax / bioavailability: ICR, mouse, plasma; for bioavailability: po; for AUC∞/D / Cmax/D: dose normalized
Method: Mice were fasted with water ad libitum for at least 12 h before oral administration with enavogliflozin. Fifty-four mice were randomly divided into nine groups (n = 6 per group, Table 1) and were administered an enavogliflozin solution at doses of 0.3, 1, and 3 mg/kg via oral gavage. The drug was dissolved in a mixture of 10% DMSO and 90% saline. Blood samples were collected at 0, 0.083, 0.25, 0.5, 1, 2, 4, 8, and 24 h with the same procedures described above and provided in Table 1.
as §1, §2

[7] = parameters: method as in PMID 32183468; details: mice; cited from earlier work

Question: For `OC[C@H]1O[C@@H](c2cc(Cc3ccc(C4CC4)cc3)c(Cl)c3c2CCO3)[C@H](O)[C@@H](O)[C@@H]1O` [enavogliflozin, (2S,3R,4R,5S,6R)-2-(7-chloro-6-(4-cyclopropylbenzyl) -2,3-dihydrobenzofuran-4-yl)-6-(hydroxymethyl)tetrahydro-2H-pyran-3,4,5-triol], which “In vitro hepatic clearance” value (hepatocytes [1]) is on record?
Answer: The value was 0.498 L/h/kg.

Question: And the AUC(0-inf) ([2]; IV 0.3 mg/kg)?
Answer: Its AUC(0-inf) is 0.512 ± 0.0307 µg·h/mL.

Question: What about the AUC(0-t) ([2]; IV 0.3 mg/kg) of the same compound?
Answer: Its AUC(0-t) is 0.479 ± 0.0336 µg·h/mL.

Question: And the half-life ([2]; IV 0.3 mg/kg)?
Answer: The half-life was 6 ± 1.3 h.

Question: What about the AUC(0-inf) ([2]; IV 1 mg/kg) of the same compound?
Answer: The AUC(0-inf) was 1.63 ± 0.336 µg·h/mL.

Question: What about the AUC(0-t) ([2]; IV 1 mg/kg) of the same compound?
Answer: Its AUC(0-t) is 1.51 ± 0.282 µg·h/mL.

Question: What about the half-life ([2]; IV 1 mg/kg) of the same compound?
Answer: Its half-life is 6.5 ± 1.4 h.

Question: What about the AUC(0-inf) ([2]; IV 3 mg/kg) of the same compound?
Answer: The AUC(0-inf) was 5.08 ± 1.06 µg·h/mL.

Question: And the AUC(0-t) ([2]; IV 3 mg/kg)?
Answer: Its AUC(0-t) is 4.66 ± 0.998 µg·h/mL.

Question: What about the half-life ([2]; IV 3 mg/kg) of the same compound?
Answer: Its half-life is 6.6 ± 0.5 h.

Question: What about the MRT ([2]; IV 0.3 mg/kg) of the same compound?
Answer: Its MRT is 5.2 ± 0.4 h.

Question: And the clearance ([2]; IV 0.3 mg/kg, read-out: CL)?
Answer: Its clearance is 0.588 ± 0.036 L/h/kg.

Question: What about the Vd ([2]; IV 0.3 mg/kg, read-out: Vd,ss) of the same compound?
Answer: The Vd was 3.1 ± 0.3 L/kg.

Question: And the MRT ([2]; IV 1 mg/kg)?
Answer: The MRT was 4.9 ± 0.5 h.

Question: And the clearance ([2]; IV 1 mg/kg, read-out: CL)?
Answer: The clearance was 0.642 ± 0.15 L/h/kg.

Question: And the Vd ([2]; IV 1 mg/kg, read-out: Vd,ss)?
Answer: The Vd was 3.1 ± 0.6 L/kg.

Question: What about the MRT ([2]; IV 3 mg/kg) of the same compound?
Answer: The MRT was 5.2 ± 0.8 h.

Question: What about the clearance ([2]; IV 3 mg/kg, read-out: CL) of the same compound?
Answer: Its clearance is 0.612 ± 0.126 L/h/kg.

Question: And the Vd ([2]; IV 3 mg/kg, read-out: Vd,ss)?
Answer: Its Vd is 3.2 ± 0.5 L/kg.

Question: What about the clearance ([2]; IV 0.3–3 mg/kg, all doses together, read-out: Systemic clearance) of the same compound?
Answer: The clearance was 0.606 ± 0.0954 L/h/kg.

Question: And the Vd ([2]; IV, range over doses 0.3–3 mg/kg, read-out: steady-state volume of distribution (Vd,ss))?
Answer: The Vd was 3.1 to 3.2 L/kg.

Question: What about the “AUC∞/D” value ([2]; IV 0.3 mg/kg) of the same compound?
Answer: The value was 1706.8 ± 102.3.

Question: And the Co/D ([2]; IV 0.3 mg/kg)?
Answer: Its Co/D is 416.8 ± 31.3.

Question: And the Co ([2]; IV 0.3 mg/kg)?
Answer: Its Co is 125.0 ± 9.4 ng/mL.

Question: What about the “AUC∞/D” value ([2]; IV 1 mg/kg) of the same compound?
Answer: The value was 1626.7 ± 335.6.

Question: What about the Co/D ([2]; IV 1 mg/kg) of the same compound?
Answer: The Co/D was 408.6 ± 103.2.

Question: What about the Co ([2]; IV 1 mg/kg) of the same compound?
Answer: The Co was 408.6 ± 103.2 ng/mL.

Question: What about the “AUC∞/D” value ([2]; IV 3 mg/kg) of the same compound?
Answer: Its value is 1694.3 ± 354.5.

Question: What about the Co/D ([2]; IV 3 mg/kg) of the same compound?
Answer: The Co/D was 424.7 ± 62.2.

Question: What about the Co ([2]; IV 3 mg/kg) of the same compound?
Answer: The Co was 1274.1 ± 186.6 ng/mL.

Question: And the “In vitro hepatic clearance” value (hepatocytes [3])?
Answer: Its value is 1.11 L/h/kg.

Question: And the “In vitro hepatic clearance” value (hepatocytes [4])?
Answer: Its value is 0.27 L/h/kg.

Question: What about the “In vitro hepatic clearance” value (hepatocytes [5]) of the same compound?
Answer: The value was 1.07 L/h/kg.

Question: And the AUC(0-inf) ([6]; PO 0.3 mg/kg)?
Answer: The AUC(0-inf) was 0.498 ± 0.079 µg·h/mL.

Question: What about the AUC(0-t) ([6]; PO 0.3 mg/kg) of the same compound?
Answer: Its AUC(0-t) is 0.488 ± 0.0779 µg·h/mL.

Question: What about the Cmax ([6]; PO 0.3 mg/kg) of the same compound?
Answer: Its Cmax is 0.0721 ± 0.0105 µg/mL.

Question: What about the half-life ([6]; PO 0.3 mg/kg) of the same compound?
Answer: The half-life was 4.3 ± 0.5 h.

Question: What about the AUC(0-inf) ([6]; PO 1 mg/kg) of the same compound?
Answer: The AUC(0-inf) was 1.37 ± 0.27 µg·h/mL.

Question: What about the AUC(0-t) ([6]; PO 1 mg/kg) of the same compound?
Answer: The AUC(0-t) was 1.36 ± 0.27 µg·h/mL.

Question: And the Cmax ([6]; PO 1 mg/kg)?
Answer: Its Cmax is 0.216 ± 0.0941 µg/mL.

Question: What about the half-life ([6]; PO 1 mg/kg) of the same compound?
Answer: Its half-life is 3.5 ± 0.2 h.

Question: And the AUC(0-inf) ([6]; PO 3 mg/kg)?
Answer: Its AUC(0-inf) is 4.76 ± 0.543 µg·h/mL.

Question: And the AUC(0-t) ([6]; PO 3 mg/kg)?
Answer: Its AUC(0-t) is 4.74 ± 0.532 µg·h/mL.

Question: What about the Cmax ([6]; PO 3 mg/kg) of the same compound?
Answer: Its Cmax is 0.943 ± 0.231 µg/mL.

Question: And the half-life ([6]; PO 3 mg/kg)?
Answer: Its half-life is 3.3 ± 0.4 h.

Question: And the MRT ([6]; PO 0.3 mg/kg)?
Answer: Its MRT is 5.7 ± 0.5 h.

Question: What about the Tmax ([6]; PO 0.3 mg/kg) of the same compound?
Answer: The Tmax was 1.5 ± 0.5 h.

Question: And the MRT ([6]; PO 1 mg/kg)?
Answer: Its MRT is 5.7 ± 0.5 h.

Question: What about the MRT ([6]; PO 3 mg/kg) of the same compound?
Answer: The MRT was 5.3 ± 0.5 h.

Question: And the Tmax ([6]; PO 3 mg/kg)?
Answer: The Tmax was 0.9 ± 0.3 h.

Question: And the bioavailability ([6]; 0.3 mg/kg, PO 0.3 mg/kg, AUC∞,PO / AUC∞,IV, read-out: BA (absolute bioavailability))?
Answer: Its bioavailability is 97.2%.

Question: What about the bioavailability ([6]; 1 mg/kg, PO 1 mg/kg, AUC∞,PO / AUC∞,IV, read-out: BA (absolute bioavailability)) of the same compound?
Answer: Its bioavailability is 84.5%.

Question: What about the bioavailability ([6]; 3 mg/kg, PO 3 mg/kg, AUC∞,PO / AUC∞,IV, read-out: BA (absolute bioavailability)) of the same compound?
Answer: Its bioavailability is 93.7%.

Question: What about the bioavailability ([6]; 3 mg/kg, range over doses 0.3, 1 and 3 mg/kg, read-out: Oral bioavailability) of the same compound?
Answer: The bioavailability was 84.5 to 97.2%.

Question: And the “AUC∞/D” value ([6]; PO 0.3 mg/kg)?
Answer: The value was 1658.9 ± 263.5.

Question: What about the Cmax/D ([6]; PO 0.3 mg/kg) of the same compound?
Answer: The Cmax/D was 240.5 ± 35.0.

Question: What about the “AUC∞/D” value ([6]; PO 1 mg/kg) of the same compound?
Answer: The value was 1373.8 ± 269.6.

Question: And the Cmax/D ([6]; PO 1 mg/kg)?
Answer: Its Cmax/D is 216.1 ± 94.1.

Question: What about the “AUC∞/D” value ([6]; PO 3 mg/kg) of the same compound?
Answer: Its value is 1587.0 ± 181.1.

Question: And the Cmax/D ([6]; PO 3 mg/kg)?
Answer: The Cmax/D was 314.3 ± 76.9.

Question: And the “ratio of AUC in kidney to AUC in plasma” value [7]?
Answer: Its value is 85.0 ± 16.1.

Source: PMC9230590, “Pharmacokinetics and Tissue Distribution of Enavogliflozin in Mice and Rats” (Pharmaceutics, 2022)
